# Biological target: Human Factor D (Homo sapiens (Human), UniProt P00746)
# Assay: Human Factor D Assay
# Assay type: biochemical
# Conditions: Factor D inhibition, assay of Example 10; read-out: IC5 (Stars)
# In short: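 Serum-purified Factor D (80 nM final) preincubated 5 min at room temperature with compound in 50 mM Tris, 1 M NaCl, pH 7.5. Z-L-Lys-SBz and DTNB added at 100 μM each; A405 followed every 30 s for 30 min. IC50 from nonlinear regression of rates versus concentration.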
# Human Factor D, sequence (P00746 26-253): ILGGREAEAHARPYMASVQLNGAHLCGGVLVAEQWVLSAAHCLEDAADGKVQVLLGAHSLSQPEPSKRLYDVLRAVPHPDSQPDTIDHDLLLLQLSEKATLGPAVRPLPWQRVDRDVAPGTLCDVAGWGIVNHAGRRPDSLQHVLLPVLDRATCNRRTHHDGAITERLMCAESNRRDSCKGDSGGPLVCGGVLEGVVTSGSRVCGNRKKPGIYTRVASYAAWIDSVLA
row,Structure (SMILES),IC50 [nM]
1,"CC(=O)c1nn(CC(=O)N2[C@H](C(=O)Nc3nc(Br)ccc3C)C[C@@]3(CN4CCC(F)(F)CC4)C[C@@H]23)c2c(C)cc(-c3cnc(C)nc3)cc12 [Compound 306, (1R,3S,5R)-2-(2-(3-acetyl-7-methyl-5-(2-methylpyrimidin-5-yl)-1H-indazol-1-yl)acetyl)-N-(6-bromo-3-methylpyridin-2-yl)-5-((4,4-difluoropiperidin-1-yl)methyl)-2-azabicyclo[3.1.0]hexane-3-carboxamide]",< 1000
2,"CC(=O)c1nn(CC(=O)N2[C@H](C(=O)N[C@@H](C)c3ccccc3)C[C@@]3(C)C[C@@H]23)c2ccc(-c3cnc(C)nc3)cc12 [Compound 553, (1R,3S,5R)-2-(2-(3-acetyl-5-(2-methylpyrimidin-5-yl)-1H-indazol-1-yl)acetyl)-5-methyl-N-((S)-1-phenylethyl)-2-azabicyclo[3.1.0]hexane-3-carboxamide]",< 1000
3,"CC(=O)c1nn(CC(=O)N2[C@H](C(=O)NCCC(C)(C)C)C[C@@]3(C)C[C@@H]23)c2ccc(-c3cnc(C)nc3)cc12 [Compound 552, (1R,3S,5R)-2-(2-(3-acetyl-5-(2-methylpyrimidin-5-yl)-1H-indazol-1-yl)acetyl)-N-(3,3-dimethylbutyl)-5-methyl-2-azabicyclo[3.1.0]hexane-3-carboxamide]",< 1000
4,"CC(=O)c1nn(CC(=O)N2[C@H](C(=O)Nc3nc(Br)ccc3C)C[C@@]3(CCN(C)C)C[C@@H]23)c2c(CF)cc(-c3cnc(C)nc3)cc12 [Compound 377, (1R,3S,5R)-2-(2-(3-acetyl-7-(fluoromethyl)-5-(2-methylpyrimidin-5-yl)-1H-indazol-1-yl)acetyl)-N-(6-bromo-3-methylpyridin-2-yl)-5-(2-(dimethylamino)ethyl)-2-azabicyclo[3.1.0]hexane-3-carboxamide]",< 1000
5,"CC(=O)c1nn(CC(=O)N2[C@H](C(=O)Nc3nc(Br)c(F)cc3C)C[C@@]3(C)C[C@@H]23)c2c(C(F)(F)F)nc(-c3cnc(C)nc3)cc12 [Compound 271, (1R,3S,5R)-2-(2-(3-acetyl-5-(2-methylpyrimidin-5-yl)-7-(trifluoromethyl)-1H-pyrazolo[3,4-c]pyridin-1-yl)acetyl)-N-(6-bromo-5-fluoro-3-methylpyridin-2-yl)-5-methyl-2-azabicyclo[3.1.0]hexane-3-carboxamide]",< 1000
6,"CC(=O)c1nn(CC(=O)N2[C@H](C(=O)Nc3nc(Br)ccc3C)C[C@@]3(CCS(C)(=N)=O)C[C@@H]23)c2c(C)cc(-c3cnc(C)nc3)cc12 (stereo partly drawn) [Compound 287, (1R,3S,5R)-2-(2-(3-acetyl-7-methyl-5-(2-methylpyrimidin-5-yl)-1H-indazol-1-yl)acetyl)-N-(6-bromo-3-methylpyridin-2-yl)-5-(2-(S-methylsulfonimidoyl)ethyl)-2-azabicyclo[3.1.0]hexane-3-carboxamide]",< 1000
7,"CC(=O)c1nn(CC(=O)N2[C@H](C(=O)Nc3cc(-c4nnn[nH]4)cc(Br)n3)C[C@@]3(C)C[C@@H]23)c2ccc(-c3cnc(C)nc3)cc12 [Compound 544, (1R,3S,5R)-2-(2-(3-acetyl-5-(2-methylpyrimidin-5-yl)-1H-indazol-1-yl)acetyl)-N-(6-bromo-4-(1H-tetrazol-5-yl)pyridin-2-yl)-5-methyl-2-azabicyclo[3.1.0]hexane-3-carboxamide]",< 1000
8,"CC(=O)c1nn(CC(=O)N2[C@H](C(=O)NCCOC(F)(F)F)C[C@@]3(C)C[C@@H]23)c2ccc(-c3cnc(C)nc3)cc12 [Compound 579, (1R,3S,5R)-2-(2-(3-acetyl-5-(2-methylpyrimidin-5-yl)-1H-indazol-1-yl)acetyl)-5-methyl-N-(2-(trifluoromethoxy)ethyl)-2-azabicyclo[3.1.0] hexane-3-carboxamide]",< 1000
9,"CC(=O)c1nn(CC(=O)N2[C@H](C(=O)Nc3cc(OCc4ccccc4)cc(Br)n3)C[C@@]3(C)C[C@@H]23)c2ccc(-c3cnc(C)nc3)cc12 [Compound 504, (1R,3S,5R)-2-(2-(3-acetyl-5-(2-methylpyrimidin-5-yl)-1H-indazol-1-yl)acetyl)-N-(4-(benzyloxy)-6-bromopyridin-2-yl)-5-methyl-2-azabicyclo[3.1.0]hexane-3-carboxamide]",< 1000
10,"CC(=O)c1nn(CC(=O)N2[C@H](C(=O)N[C@H](CC(C)C)C(=O)O)C[C@@]3(C)C[C@@H]23)c2c(C)cc(-c3cnc(C)nc3)cc12 [Compound 464, ((1R,3S,5R)-2-(2-(3-acetyl-7-methyl-5-(2-methylpyrimidin-5-yl)-1H-indazol-1-yl)acetyl)-5-methyl-2-azabicyclo[3.1.0]hexane-3-carbonyl)-D-leucine]",1000 to 10000
11,"CC(=O)c1nn(CC(=O)N2C[C@H]3C[C@H]3[C@H]2C(=O)Nc2nc(Br)ccc2C)c2c(C)nc(-c3cnc(C)nc3)cc12 [Compound 241, (1R,2S,5S)-3-(2-(3-acetyl-7-methyl-5-(2-methylpyrimidin-5-yl)-1H-pyrazolo[3,4-c]pyridin-1-yl)acetyl)-N-(6-bromo-3-methylpyridin-2-yl)-3-azabicyclo[3.1.0]hexane-2-carboxamide]",< 1000

# Same assay, conditions: Table 6; Factor D 80 nM, substrate Z-L-Lys-SBz; read-out: IC50
row,Structure (SMILES),IC50 [nM]
1,"CC(=O)c1nn(CC(=O)N2[C@H](C(=O)Nc3nc(Br)ccc3C)C[C@@]3(CNC(=O)CC(F)(F)F)C[C@@H]23)c2c(C)cc(-c3cnc(C)nc3)cc12 [Compound 102, (1R,3S,5R)-2-(2-(3-Acetyl-7-methyl-5-(2-methylpyrimidin-5-yl)-1H-indazol-1-yl)acetyl)-N-(6-bromo-3-methylpyridin-2-yl)-5-((3,3,3-trifluoropropanamido)methyl)-2-azabicyclo[3.1.0]hexane-3-carboxamide]",< 1000
2,"CC(=O)c1nn(CC(=O)N2C3CC3(CN3CCC4(CC3)CC4)C[C@H]2C(=O)Nc2nc(Br)ccc2C)c2ccc(-c3cnc(C)nc3)cc12 (stereo partly drawn) [Compound 5, (3S)-5-(6-Azaspiro[2.5]octan-6-ylmethyl)-2-(2-(3-acetyl-5-(2-methylpyrimidin-5-yl)-1H-indazol-1-yl)acetyl)-N-(6-bromo-3-methylpyridin-2-yl)-2-azabicyclo[3.1.0]hexane-3-carboxamide]",< 1000
3,"CC(=O)c1nn(CC(=O)N2[C@H](C(=O)Nc3cc(F)cc(Br)n3)C[C@@]3(C)C[C@@H]23)c2c(C)cc(-c3cnc(C)nc3)cc12 [Compound 116, (1R,3S,5R)-2-(2-(3-Acetyl-7-methyl-5-(2-methylpyrimidin-5-yl)-1H-indazol-1-yl)acetyl)-N-(6-bromo-4-fluoropyridin-2-yl)-5-methyl-2-azabicyclo[3.1.0]hexane-3-carboxamide]",< 1000
4,"CC(=O)c1nn(CC(=O)N2[C@H](C(=O)Nc3nc(Br)ccc3C)C[C@@]3(CN(C)C)C[C@@H]23)c2c(CF)cc(-c3cnc(C)nc3)cc12 [Compound 74, (1R,3S,5R)-2-(2-(3-Acetyl-7-(fluoromethyl)-5-(2-methylpyrimidin-5-yl)-1H-indazol-1-yl)acetyl)-N-(6-bromo-3-methylpyridin-2-yl)-5-((dimethylamino)methyl)-2-azabicyclo[3.1.0]hexane-3-carboxamide]",< 1000
5,"Cc1ncc(-c2cc(C)c3c(c2)c(C(N)=O)nn3CC(=O)N2[C@H](C(=O)Nc3nc(Br)ccc3C)C[C@@]3(C)C[C@@H]23)cn1 [Compound 57, 1-(2-((1R,3S,5R)-3-((6-Bromo-3-methylpyridin-2-yl)carbamoyl)-5-methyl-2-azabicyclo[3.1.0]hexan-2-yl)-2-oxoethyl)-7-methyl-5-(2-methylpyrimidin-5-yl)-1H-indazole-3-carboxamide]",< 1000
6,"CC(=O)c1nn(CC(=O)N2[C@H](C(=O)Nc3nc(Br)ccc3C)C[C@@]3(CN(C)C)C[C@@H]23)c2c(C)cc(-c3cnc(C)nc3)cc12 [Compound 100, (1R,3S,5R)-2-(2-(3-acetyl-7-methyl-5-(2-methylpyrimidin-5-yl)-1H-indazol-1-yl)acetyl)-N-(6-bromo-3-methylpyridin-2-yl)-5-((dimethylamino)methyl)-2-azabicyclo[3.1.0]hexane-3-carboxamide]",< 1000
7,"CC(=O)c1nn(CC(=O)N2[C@H](C(=O)Nc3nc(Br)ccc3C)C[C@@]3(CO)C[C@@H]23)c2ccc(-c3cnc(C)nc3)cc12 [Compound 65, (1R,3S,5S)-2-(2-(3-acetyl-5-(2-methylpyrimidin-5-yl)-1H-indazol-1-yl)acetyl)-N-(6-bromo-3-methylpyridin-2-yl)-5-(hydroxymethyl)-2-azabicyclo[3.1.0]hexane-3-carboxamide]",< 1000
8,"CC(=O)c1nn(CC(=O)N2[C@H](C(=O)N[C@@H](C)C(F)=C(C)C)C[C@@]3(C)C[C@@H]23)c2c(C)cc(-c3cnc(C)nc3)cc12 [Compound 34, (1R,3S,5R)-2-(2-(3-Acetyl-7-methyl-5-(2-methylpyrimidin-5-yl)-1H-indazol-1-yl)acetyl)-N—((S)-3-fluoro-4-methylpent-3-en-2-yl)-5-methyl-2-azabicyclo[3.1.0]hexane-3-carboxamide]",< 1000
9,"CC(=O)c1nn(CC(=O)N2C[C@H](F)C[C@H]2C(=O)Nc2nc(Br)ccc2CC(=O)O)c2ccc(-c3cnc(C)nc3)cc12 [Compound 62, 2-(2-((2S,4R)-1-(2-(3-Acetyl-5-(2-methylpyrimidin-5-yl)-1H-indazol-1-yl)acetyl)-4-fluoropyrrolidine-2-carboxamido)-6-bromopyridin-3-yl)acetic Acid]",< 1000

# Same assay, conditions: Table 8; Factor D 80 nM, substrate Z-L-Lys-SBz; read-out: IC50
row,Structure (SMILES),IC50 [nM]
1,"CC(=O)c1nn(CC(=O)N2[C@H](C(=O)NCCCCc3ccccc3)C[C@@]3(C)C[C@@H]23)c2c(C)cc(-c3cnc(C)nc3)cc12 [Compound 538, (1R,3S,5R)-2-(2-(3-acetyl-7-methyl-5-(2-methylpyrimidin-5-yl)-1H-indazol-1-yl)acetyl)-5-methyl-N-(4-phenylbutyl)-2-azabicyclo[3.1.0]hexane-3-carboxamide]",< 1000
2,"CCCCCCCCNC(=O)[C@@H]1C[C@@]2(C)C[C@H]2N1C(=O)Cn1nc(C(C)=O)c2cc(-c3cnc(C)nc3)cc(C)c21 [Compound 528, (1R,3S,5R)-2-(2-(3-acetyl-7-methyl-5-(2-methylpyrimidin-5-yl)-1H-indazol-1-yl)acetyl)-5-methyl-N-octyl-2-azabicyclo[3.1.0]hexane-3-carboxamide]",1000 to 10000

# From US11084800B2 (Achillion Pharmaceuticals, Inc., priority 2017, dated 2021)
